This note sets out measurements from ChEMBL document CHEMBL4387701, “H2depda: An acyclic adjuvant potentiates meropenem activity in vitro against metallo-β-lactamase-producing enterobacterales” (Eur J Med Chem, 2019).

Converted amounts (≈) assume the structure as drawn. The source made the active and inactive calls. The rule behind the calls is not given here.

Data set [1] relates to Escherichia coli. The data set is described as follows: Effect on growth of NDM4-positive Escherichia coli assessed as bacterial growth at 0.03125 ug/mL after 24 hrs by broth microdilution method relative to control. The data set is classed as functional. (In broth dilution the organism is exposed to a series of concentrations in liquid medium.)
For data set [2], the target named is T1, Metallo-beta-lactamase NDM-4 (Escherichia coli) (UniProt H6WZS9).
T1 sequence (whole entry): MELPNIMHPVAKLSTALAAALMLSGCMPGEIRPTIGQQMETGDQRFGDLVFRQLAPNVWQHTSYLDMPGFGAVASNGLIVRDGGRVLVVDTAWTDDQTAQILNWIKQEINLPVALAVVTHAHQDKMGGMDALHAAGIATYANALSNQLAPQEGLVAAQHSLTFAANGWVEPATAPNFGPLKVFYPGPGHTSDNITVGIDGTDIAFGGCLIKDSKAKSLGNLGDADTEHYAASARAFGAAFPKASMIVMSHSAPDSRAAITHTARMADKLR
Nature of the data set: Inhibition of NDM4 in Escherichia coli ATCC 25922 assessed as potentiation of meropenem-induced antibacterial activity by measuring zone of inhibition by agar disk diffusion method. A general note: In agar diffusion tests the substance spreads into inoculated agar from a disc or well.

Data set [3] relates to Escherichia coli ATCC 25922. The data set is described as follows: Inhibition of IMP-4 in Escherichia coli ATCC 25922 assessed as potentiation of meropenem-induced antibacterial activity by measuring zone of inhibition by agar disk diffusion method.
The nature of data set [4]: Inhibition of Stenotrophomonas maltophilia NDM1 expressed in Escherichia coli BL21 (DE3) expressing measured after 15 minutes at interval of 60 secs.
Data set [5] concerns Enterobacter cloacae. The data set is described as follows: Effect on growth of Enterobacter cloacae isolate 5 after 24 hrs by broth microdilution assay. In kind it is organism-based.
Data set [6] has as its system Klebsiella pneumoniae. The data set is described as follows: Inhibition of IMP4 in Klebsiella pneumoniae isolate 12 assessed as potentiation of meropenem-induced antibacterial activity by measuring meropenem MIC after 24 hrs by broth microdilution method (reference value: 16 ug/ml).
Data set [7] has as its system Escherichia coli. Nature of the data set: Effect on growth of Escherichia coli isolate 8 after 24 hrs by broth microdilution assay. In kind it is organism-based.
Data set [8] concerns Escherichia coli. The data set is described as follows: Effect on growth of Escherichia coli isolate 1 after 24 hrs by broth microdilution assay. In kind it is organism-based.
For data set [9], the system named is Enterobacter cloacae. Nature of the data set: Inhibition of NDM1 in Enterobacter cloacae isolate 5 assessed as potentiation of meropenem-induced antibacterial activity by measuring meropenem MIC after 24 hrs by broth microdilution assay (reference value: 640 ug/ml).
Data set [10] concerns Enterobacter cloacae. Nature of the data set: Effect on growth of Enterobacter cloacae isolate 15 after 24 hrs by broth microdilution method. In kind it is organism-based.
Data set [11] deals with T1, Metallo-beta-lactamase NDM-4 (Escherichia coli). The data set is described as follows: Inhibition of Escherichia coli NDM4 assessed as potentiation of meropenem-induced antibacterial activity by measuring reduction in bacterial growth at 64 ug/mL after 24 hrs by broth microdilution method relative to control.
In data set [12] the test system is Escherichia coli. The data set is described as follows: Effect on growth of NDM4-positive Escherichia coli assessed as bacterial growth at 64 ug/mL after 24 hrs by broth microdilution method relative to control. The data set is classed as organism-based.
The subject of data set [13] is Escherichia coli. The data set is described as follows: Inhibition of NDM-7 in Escherichia coli isolate 2 assessed as potentiation of meropenem-induced antibacterial activity by measuring meropenem MIC after 24 hrs by broth microdilution assay (reference value: 640 ug/ml).
In data set [14] the test system is Enterobacter cloacae. Nature of the data set: Effect on growth of Enterobacter cloacae isolate 4 after 24 hrs by broth microdilution assay. In kind it is organism-based.
Data set [15] concerns Escherichia coli. The data set is described as follows: Effect on growth of Escherichia coli isolate 9 after 24 hrs by broth microdilution assay. The data set is classed as organism-based.
Another data set concerns Citrobacter freundii. Nature of the data set: Effect on growth of Citrobacter freundii isolate 7 after 24 hrs by broth microdilution assay. The data set is classed as organism-based.
Data set [16] relates to Klebsiella pneumoniae. The data set is described as follows: Effect on growth of Klebsiella pneumoniae isolate 13 after 24 hrs by broth microdilution method. The data set is classed as organism-based.
Data set [17] relates to Escherichia coli. Nature of the data set: Inhibition of NDM1 in Escherichia coli isolate 8 assessed as potentiation of meropenem-induced antibacterial activity by measuring meropenem MIC after 24 hrs by broth microdilution assay (reference value: 320 ug/ml).
Data set [18] concerns Klebsiella pneumoniae. Nature of the data set: Effect on growth of Klebsiella pneumoniae isolate 12 after 24 hrs by broth microdilution method. The data set is classed as organism-based.
In data set [19] the test system is Klebsiella pneumoniae. The data set is described as follows: Effect on growth of Klebsiella pneumoniae isolate 10 after 24 hrs by broth microdilution method. The data set is classed as organism-based.
Data set [20] concerns Enterobacter cloacae. The data set is described as follows: Inhibition of NDM1 in Enterobacter cloacae isolate 6 assessed as potentiation of meropenem-induced antibacterial activity by measuring meropenem MIC after 24 hrs by broth microdilution assay (reference value: 320 ug/ml).
Data set [21] relates to Escherichia coli. The data set is described as follows: Inhibition of NDM1 in Escherichia coli isolate 1 assessed as potentiation of meropenem-induced antibacterial activity by measuring meropenem MIC after 24 hrs by broth microdilution assay (reference value: 1280 ug/ml).
For data set [22], the system named is Escherichia coli. Nature of the data set: Effect on growth of Escherichia coli isolate 14 after 24 hrs by broth microdilution method. The data set is classed as organism-based.
In data set [23] the test system is Klebsiella pneumoniae. Nature of the data set: Effect on growth of Klebsiella pneumoniae isolate 17 after 24 hrs by broth microdilution method. In kind it is organism-based.
For data set [24], the system named is Escherichia coli. Nature of the data set: Effect on growth of Escherichia coli isolate 11 after 24 hrs by broth microdilution method. The data set is classed as organism-based.
Data set [25] has as its target T1, Metallo-beta-lactamase NDM-4 (Escherichia coli). Nature of the data set: Inhibition of NDM4 in Escherichia coli isolate 3 assessed as potentiation of meropenem-induced bactericidal activity at 4 times MIC incubated for 24 hrs followed by replating on agar plates for 16 to 18 hrs and measured up to 24 hrs by time kill assay.
The subject of data set [26] is Escherichia coli. The data set is described as follows: Inhibition of IMP4 in Escherichia coli isolate 18 assessed as potentiation of meropenem-induced antibacterial activity by measuring meropenem MIC after 24 hrs by broth microdilution method (reference value: 16 ug/ml).
The subject of data set [27] is Escherichia coli. The data set is described as follows: Inhibition of IMP4 in Escherichia coli isolate 14 assessed as potentiation of meropenem-induced antibacterial activity by measuring meropenem MIC after 24 hrs by broth microdilution method (reference value: 16 ug/ml).
Data set [28] relates to Enterobacter cloacae. The data set is described as follows: Inhibition of IMP4 in Enterobacter cloacae isolate 16 assessed as potentiation of meropenem-induced antibacterial activity by measuring meropenem MIC after 24 hrs by broth microdilution method (reference value: 64 ug/ml).
In data set [29] the target is T1, Metallo-beta-lactamase NDM-4 (Escherichia coli). Nature of the data set: Inhibition of NDM4 in Escherichia coli isolate 3 assessed as potentiation of meropenem-induced antibacterial activity by measuring meropenem MIC after 24 hrs by broth microdilution assay (reference value: 1280 ug/ml).
For data set [30], the system named is Klebsiella pneumoniae. The data set is described as follows: Inhibition of IMP4 in Klebsiella pneumoniae isolate 10 assessed as potentiation of meropenem-induced antibacterial activity by measuring meropenem MIC after 24 hrs by broth microdilution method (reference value: 64 ug/ml).
The subject of data set [31] is Enterobacter cloacae. The data set is described as follows: Effect on growth of Enterobacter cloacae isolate 6 after 24 hrs by broth microdilution assay. The data set is classed as organism-based.
Data set [32] relates to Escherichia coli. Nature of the data set: Inhibition of IMP4 in Escherichia coli isolate 11 assessed as potentiation of meropenem-induced antibacterial activity by measuring meropenem MIC after 24 hrs by broth microdilution method (reference value: 32 ug/ml).
In data set [33] the test system is Escherichia coli. The data set is described as follows: Effect on growth of Escherichia coli isolate 18 after 24 hrs by broth microdilution method. The data set is classed as organism-based.
In data set [34] the test system is Klebsiella pneumoniae. Nature of the data set: Inhibition of IMP4 in Klebsiella pneumoniae isolate 13 assessed as potentiation of meropenem-induced antibacterial activity by measuring meropenem MIC after 24 hrs by broth microdilution method (reference value: 320 ug/ml).
Data set [35] relates to Enterobacter cloacae. The data set is described as follows: Inhibition of IMP4 in Enterobacter cloacae isolate 15 assessed as potentiation of meropenem-induced antibacterial activity by measuring meropenem MIC after 24 hrs by broth microdilution method (reference value: 32 ug/ml).
Data set [36] relates to Proteus mirabilis. The data set is described as follows: Effect on growth of Proteus mirabilis isolate 19 after 24 hrs by broth microdilution method. The data set is classed as organism-based.
Data set [37] relates to Escherichia coli. Nature of the data set: Effect on growth of Escherichia coli isolate 3 after 24 hrs by broth microdilution assay. In kind it is organism-based.
Data set [38] relates to Proteus mirabilis. The data set is described as follows: Inhibition of IMP4 in Proteus mirabilis isolate 19 assessed as potentiation of meropenem-induced antibacterial activity by measuring meropenem MIC after 24 hrs by broth microdilution method (reference value: 320 ug/ml).
Data set [39] concerns Enterobacter cloacae. The data set is described as follows: Effect on growth of Enterobacter cloacae isolate 16 after 24 hrs by broth microdilution method. In kind it is organism-based.
Data set [40] addresses T1, Metallo-beta-lactamase NDM-4 (Escherichia coli). Nature of the data set: Inhibition of Escherichia coli NDM4 assessed as potentiation of meropenem-induced antibacterial activity by measuring bacterial growth rate at 64 ug/mL after 24 hrs in presence of ZnCl2 by broth microdilution method relative to control.
Data set [41] concerns Enterobacter cloacae. The data set is described as follows: Inhibition of NDM1 in Enterobacter cloacae isolate 4 assessed as potentiation of meropenem-induced antibacterial activity by measuring meropenem MIC after 24 hrs by broth microdilution assay (reference value: 640 ug/ml).
The subject of data set [42] is Klebsiella pneumoniae. The data set is described as follows: Inhibition of IMP4 in Klebsiella pneumoniae isolate 17 assessed as potentiation of meropenem-induced antibacterial activity by measuring meropenem MIC after 24 hrs by broth microdilution method (reference value: 32 ug/ml).
Data set [43] deals with Escherichia coli. The data set is described as follows: Effect on growth of Escherichia coli isolate 2 after 24 hrs by broth microdilution assay. The data set is classed as organism-based.

By IC50 is commonly meant the concentration that inhibits the measured activity by half. A higher IC50 goes with weaker potency in that assay. What is called inhibition is the percentage by which the read-out fell short of the control.

With `C[C@@H](O)[C@H]1C(=O)N2C(C(=O)O)=C(S[C@@H]3CN[C@H](C(=O)N(C)C)C3)[C@H](C)[C@H]12` [MEROPENEM], the Activity with Escherichia coli [1] was found to be 95%.

For `O=C(O)CN(CCN(CC(=O)O)CC(=O)O)CC(=O)O` [EDETIC ACID], the inhibition zone (IZ) turned out to be 18.2 mm in [2] and 13.9 mm in data set [3]. In [4], this compound registered an IC50 of 8.47 µM.

Regarding `O=C(O)CN1CCN(CC(=O)O)CCN(CC(=O)O)CC1`, the MIC was 16 µg/mL (≈ 52.8 µM) in the data set on Enterobacter cloacae [5]; 1 µg/mL in the data set on Klebsiella pneumoniae [6]; 16 µg/mL (≈ 52.8 µM) in the data set on Escherichia coli [7]; 16 µg/mL (≈ 52.8 µM) with Escherichia coli [8]; 0.25 µg/mL in the data set with Enterobacter cloacae [9]; 16 µg/mL (≈ 52.8 µM) against Enterobacter cloacae [10]. Besides, the MIC came out at 0.25 µg/mL in the data set on Escherichia coli [13]; 16 µg/mL (≈ 52.8 µM) in the data set with Enterobacter cloacae [14]; 16 µg/mL (≈ 52.8 µM) against Escherichia coli [15]; 16 µg/mL (≈ 52.8 µM) against Citrobacter freundii; 16 µg/mL (≈ 52.8 µM) with Klebsiella pneumoniae [16]; 0.125 µg/mL in the data set on Escherichia coli [17]. Moreover, the MIC against Klebsiella pneumoniae [18] is 16 µg/mL (≈ 52.8 µM); against Klebsiella pneumoniae [19], 16 µg/mL (≈ 52.8 µM); in the data set with Enterobacter cloacae [20], 0.0312 µg/mL; in the data set on Escherichia coli [21], 0.0312 µg/mL; against Escherichia coli [22], 16 µg/mL (≈ 52.8 µM); against Klebsiella pneumoniae [23], 16 µg/mL (≈ 52.8 µM). In addition, the MIC came to 16 µg/mL (≈ 52.8 µM) in the data set on Escherichia coli [24]; 2 µg/mL in the data set on Escherichia coli [26]; 4 µg/mL with Escherichia coli [27]; 2 µg/mL with Enterobacter cloacae [28]; 0.25 µg/mL in data set [29]; 4 µg/mL with Klebsiella pneumoniae [30]. Besides, the MIC against Enterobacter cloacae [31] was found to be 16 µg/mL (≈ 52.8 µM); with Escherichia coli [32], 1 µg/mL; in the data set on Escherichia coli [33], 16 µg/mL (≈ 52.8 µM); in the data set on Klebsiella pneumoniae [34] it was 4 µg/mL; with Enterobacter cloacae [35], 1 µg/mL; in the data set with Proteus mirabilis [36] it was 16 µg/mL (≈ 52.8 µM). Further, the MIC in the data set on Escherichia coli [37] worked out at 16 µg/mL (≈ 52.8 µM); with Proteus mirabilis [38], 4 µg/mL; against Enterobacter cloacae [39] it was 16 µg/mL (≈ 52.8 µM); in the data set with Enterobacter cloacae [41] it was 0.125 µg/mL; in the data set with Klebsiella pneumoniae [42], 4 µg/mL; in the data set with Escherichia coli [43], 16 µg/mL (≈ 52.8 µM). Moreover, the inhibition result in [11] and in data set [25] was “Active” in each case. In the data set on Escherichia coli [12], the Activity turned out to be 95%. Further, the inhibition in data set [40] is 81%.
